Experimental data reported in PubChem BioAssay (NCI).
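Exposure lasted 48 hours, with cells grown in 96-well plates and compounds tested at five concentrations. GI50: concentration for 50% inhibition of growth. TGI: concentration producing complete growth inhibition.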

What was measured:
Experiment in all cases: NCI-60 cell line screen, 48 h
[1] = tested on: RPMI-8226 leukemia
[2] = tested on: HCT-116 colon
[3] = tested on: SN12C renal
[4] = tested on: OVCAR-8 ovarian
[5] = tested on: HOP-62 NSCLC
[6] = tested on: SR leukemia
[7] = tested on: UACC-62 melanoma
[8] = tested on: CCRF-CEM leukemia
[9] = tested on: SK-OV-3 ovarian
[10] = tested on: CAKI-1 renal

Compound	TGI [1]	TGI [2]	TGI [3]	TGI [4]	TGI [5]	TGI [6]	TGI [7]	TGI [8]	TGI [9]	TGI [10]	GI50 [2]	GI50 [3]	GI50 [4]	GI50 [5]	GI50 [10]	GI50 [7]	GI50 [9]	GI50 [1]	GI50 [8]	GI50 [6]
CC1(C)OCN(c2ccc(Cl)cc2)Cn2c1nc1ccccc12	> 100 µM	> 100 µM	> 100 µM	> 100 µM	> 100 µM	98.6 µM	5.58 µM	> 100 µM	> 100 µM	–	–	–	–	–	–	–	–	–	–	–
COc1cc2c(cc1C)n(O)c(C)c(C(=O)C/C(=N/NC(=O)C[N+](C)(C)C)C(=O)Nc1cccc(Cl)c1C)[n+]2=O	> 100 µM	> 100 µM	> 100 µM	> 100 µM	> 100 µM	> 100 µM	> 100 µM	> 100 µM	–	> 100 µM	–	–	–	–	–	–	–	–	–	–
Cc1ccc(N2C(=O)/C(=C3\Sc4c(nc(C)[nH]c4=O)N3c3ccccc3)SC2=S)cc1	> 100 µM	> 100 µM	> 100 µM	> 100 µM	25.9 µM	–	> 100 µM	> 100 µM	53.5 µM	> 100 µM	–	–	–	–	–	–	–	–	–	–
COc1ccc(-c2ccc(-c3ccc(C(=N)N)cn3)s2)cc1Cl	–	3.82 µM	3.39 µM	4.58 µM	3.83 µM	–	3.65 µM	–	3.41 µM	3.03 µM	1.84 µM	1.69 µM	2.09 µM	1.79 µM	1.65 µM	1.88 µM	1.65 µM	–	–	–
O=[N+]([O-])c1ccccc1C1N2CCCCC2[C@@H]2c3[nH]c4ccccc4c3CCN12 (some centres not stated)	61.3 µM	–	26.6 µM	39.1 µM	29.2 µM	–	14.4 µM	30.4 µM	54.3 µM	29.9 µM	–	–	–	–	–	–	–	–	–	–
COc1ccc(O)c2c1C(=O)CCCC2=O	> 100 µM	> 100 µM	> 100 µM	> 100 µM	> 100 µM	–	> 100 µM	> 100 µM	> 100 µM	> 100 µM	–	–	–	–	–	–	–	–	–	–
Cc1nc(C(N)=S)sc1C(=O)/C=C/c1cccc(O)c1	> 100 µM	–	> 100 µM	> 100 µM	> 100 µM	–	> 100 µM	89.2 µM	> 100 µM	> 100 µM	–	–	–	–	–	–	–	–	–	–
COC(=O)C1=C(C(=O)OC)C2(C(=O)OC)OC1(OC)C(C1(C(=O)OC)C(C(=O)OC)=C1C(=O)OC)=C2C(=O)OC (configuration not stated)	> 100 µM	> 100 µM	> 100 µM	> 100 µM	> 100 µM	> 100 µM	> 100 µM	> 100 µM	> 100 µM	–	–	–	–	–	–	–	–	–	–	–
CCNCCNc1cc(-c2ccc(F)cc2)c(C#N)c2nc3ccccc3n12	7.58 µM	4.34 µM	14.4 µM	15.8 µM	32.8 µM	–	3.95 µM	6.52 µM	26.4 µM	15.4 µM	2.24 µM	3.89 µM	4.52 µM	18.2 µM	4 µM	1.9 µM	13.5 µM	2.86 µM	2.77 µM	–
CC1OC(O)C(O)C(O)C1O (configuration not stated)	> 100 µM	> 100 µM	> 100 µM	> 100 µM	> 100 µM	–	> 100 µM	–	> 100 µM	> 100 µM	–	–	–	–	–	–	–	–	–	–
CCN(CC)CCCNC(=O)Cc1ccccc1Nc1c(Cl)cccc1Cl	29.1 µM	27.2 µM	28.5 µM	31.9 µM	29.9 µM	26 µM	29.5 µM	28.2 µM	29.1 µM	–	–	–	–	–	–	–	–	–	–	–
Fc1ccc(-c2ncn(C3CCNCC3)c2-c2ccnc(Oc3cccc(F)c3)n2)cc1	> 25 µM	> 21.4 µM	> 25 µM	> 25 µM	> 25 µM	–	> 18.6 µM	–	> 25 µM	> 25 µM	9.3 µM	19.1 µM	> 25 µM	> 21.8 µM	17.9 µM	10.5 µM	> 22.1 µM	24.6 µM	–	–
CCc1cccc(C)c1NC(=O)NS(=O)(=O)c1ccc(C)cc1	> 100 µM	> 100 µM	> 100 µM	> 100 µM	> 100 µM	–	> 100 µM	> 100 µM	> 100 µM	> 100 µM	–	–	–	–	–	–	–	–	–	–
Cn1c(=O)c2[nH]c(COc3ccc(C(C)(C)C)cc3)nc2n(C)c1=O	18.4 µM	> 100 µM	> 100 µM	67.1 µM	> 100 µM	55.9 µM	72.4 µM	–	> 100 µM	> 100 µM	10.2 µM	33.4 µM	18.3 µM	35.4 µM	12 µM	5.56 µM	51.6 µM	1.08 µM	–	5.12 µM
COc1cccc(C2C(C(=O)Nc3cc(=O)n(C)c(=O)n3C)=C(C)NC(C)=C2C(=O)Nc2cc(=O)n(C)c(=O)n2C)c1O	> 100 µM	–	> 100 µM	> 100 µM	> 100 µM	–	–	> 100 µM	> 100 µM	> 100 µM	–	–	–	–	–	–	–	–	–	–
O=C1C(c2ccccc2)=C(c2ccccc2)C(c2ccc(CCCCCCc3ccc(C4=C(c5ccccc5)C(=O)C(c5ccccc5)=C4c4ccccc4)cc3)cc2)=C1c1ccccc1	> 100 µM	> 100 µM	> 100 µM	> 100 µM	> 100 µM	–	> 100 µM	> 100 µM	–	–	–	–	–	–	–	–	–	–	–	–
COc1ccc2c3c(c(OCCCN(C)C)nc2c1)-c1ccc(Cl)cc1C3=O	56.1 µM	3.52 µM	21.3 µM	34.6 µM	25.3 µM	–	23.6 µM	66 µM	26.7 µM	23.6 µM	1.29 µM	5.33 µM	5.98 µM	7.71 µM	11.4 µM	10.7 µM	12.2 µM	15.4 µM	7.89 µM	–
COc1ccc(NC(=O)c2cc(OC)c(OC)c(OC)c2)cc1O	> 100 µM	> 100 µM	> 100 µM	> 100 µM	> 100 µM	> 100 µM	> 100 µM	> 100 µM	> 100 µM	–	4.21 µM	7.99 µM	4.98 µM	5.36 µM	–	2.66 µM	4.95 µM	5.93 µM	4.13 µM	0.313 µM

Compound	TGI [1]	TGI [2]	TGI [3]	TGI [4]	TGI [5]	TGI [6]	TGI [7]	TGI [8]	TGI [9]	TGI [10]	GI50 [2]	GI50 [3]	GI50 [4]	GI50 [5]	GI50 [10]	GI50 [7]	GI50 [9]	GI50 [1]	GI50 [8]	GI50 [6]
CC(C)(C)CC(C)(C)c1ccc(OCCOCCSC(=N)N)cc1	–	2.83 µM	3.62 µM	3.56 µM	3.36 µM	–	3.24 µM	6.02 µM	7.39 µM	5.87 µM	1.5 µM	1.81 µM	1.86 µM	1.87 µM	2.28 µM	1.75 µM	2.74 µM	–	2.46 µM	–
COc1ccc2c(c1)OC13Oc4cc(OC)ccc4C=C1CCCC3=C2	> 100 µM	–	> 100 µM	> 100 µM	> 100 µM	> 100 µM	> 100 µM	> 100 µM	> 100 µM	–	–	> 100 µM	> 100 µM	> 100 µM	–	4.5 µM	> 100 µM	6.12 µM	5.88 µM	4.89 µM
CC#CC(=O)N1CCC[C@H]1c1nc(-c2ccc(C(=O)Nc3ccccn3)cc2)c2c(N)nccn12	> 100 µM	> 100 µM	> 100 µM	> 100 µM	> 100 µM	> 100 µM	> 100 µM	> 100 µM	> 100 µM	–	> 76 µM	47.6 µM	> 80.4 µM	> 100 µM	–	34.8 µM	2.25 µM	59 µM	> 82.1 µM	43.8 µM
O=C(NNS(=O)(=O)c1cc(C(F)(F)F)cc(C(F)(F)F)c1)c1cnn(-c2ccc(Cl)cc2)c1C(F)(F)F	33.1 µM	29.6 µM	34.8 µM	51.7 µM	34.3 µM	42 µM	30 µM	–	61.7 µM	57.2 µM	15.5 µM	17.2 µM	16.1 µM	18.2 µM	26.2 µM	14.5 µM	22.9 µM	13.3 µM	–	19.4 µM
CCOC(=O)C(C)(C)Oc1ccc2c(-c3ccc(Cl)cc3)cc(=O)oc2c1	> 100 µM	> 100 µM	> 100 µM	> 100 µM	> 100 µM	> 100 µM	> 100 µM	> 100 µM	–	–	–	–	–	–	–	–	–	–	–	–
O=C(/C=C/c1cccc(Cl)c1)c1ccc(Cl)cc1Cl	> 50 µM	> 50 µM	32 µM	36.9 µM	> 50 µM	4.31 µM	29 µM	–	21.7 µM	18.2 µM	20.4 µM	14.7 µM	12 µM	17.4 µM	8.94 µM	11.1 µM	9.91 µM	1.68 µM	–	0.005 µM
Cc1cc(C)c(C(=O)OC(c2ccccc2)C(c2ccccc2)N2CCOCC2)c(C)c1 (configuration not stated)	85.3 µM	> 100 µM	> 100 µM	–	> 100 µM	–	> 100 µM	> 100 µM	> 100 µM	> 100 µM	–	–	–	–	–	–	–	–	–	–
O=[As](O)(O)c1ccc(Cc2ccc([As](=O)(O)O)cc2)cc1	0.984 µM	2.13 µM	2.08 µM	1.35 µM	3.6 µM	–	2.62 µM	1.05 µM	6.19 µM	2.78 µM	–	–	–	–	–	–	–	–	–	–
COc1ccccc1/C=C\c1cc(OC)c(OC)c(OC)c1	43.7 µM	> 100 µM	> 100 µM	> 100 µM	> 100 µM	–	> 100 µM	> 100 µM	–	> 100 µM	–	–	–	–	–	–	–	–	–	–
COC(=O)C1(Cc2cccc(Cl)c2)CCCCCCN1C(=O)c1ccccc1 (configuration not stated)	32.2 µM	29.7 µM	28.1 µM	33.4 µM	29 µM	39.8 µM	28.5 µM	31.6 µM	42.8 µM	–	–	–	–	–	–	–	–	–	–	–
CC(=O)OC1CCC2(C)C(=CC(C3C=C4CC(OC(C)=O)CCC4(C)C4=C3C3CC5OC6(CCC(C)CO6)C(C)C5C3(C)CC4)C3=C2CCC2(C)C3CC3OC4(CCC(C)CO4)C(C)C32)C1 (configuration not stated)	16.2 µM	28.4 µM	31.9 µM	23.1 µM	32.5 µM	28.3 µM	26.1 µM	–	32.7 µM	32.1 µM	–	–	–	–	–	–	–	–	–	–
COc1cc(C2C(C(=O)Nc3ccccc3)=C(C)NC(C)=C2C(=O)Nc2ccccc2)ccc1O	> 100 µM	> 100 µM	> 100 µM	85.1 µM	> 100 µM	93.3 µM	–	–	–	–	–	–	–	–	–	–	–	–	–	–
COc1cc(C2C(C#N)=C(N)OC3=C2C(=O)c2ccccc2C3=O)cc(OC)c1OC (configuration not stated)	33.5 µM	30.6 µM	11.1 µM	24.1 µM	17.7 µM	> 100 µM	2.02 µM	–	> 100 µM	20.6 µM	0.43 µM	1.3 µM	1.12 µM	0.961 µM	0.736 µM	0.396 µM	4.88 µM	1.36 µM	–	0.337 µM
O=Cc1coc2ccccc2c1=O	52.1 µM	32 µM	58.6 µM	35.3 µM	43.8 µM	–	52.8 µM	69.7 µM	50.9 µM	52.9 µM	–	–	–	–	–	–	–	–	–	–
O=C1C2=C(c3ccccc31)C(c1ccccc1Cl)N1C(=O)CSC1=N2 (configuration not stated)	> 100 µM	> 100 µM	> 100 µM	> 100 µM	> 100 µM	–	> 100 µM	> 100 µM	> 100 µM	> 100 µM	–	–	–	–	–	–	–	–	–	–
CCC1(CN(C)C)CC/C(=C\c2ccc3c(c2)OCO3)C1=O (configuration not stated)	> 100 µM	> 100 µM	> 100 µM	> 100 µM	> 100 µM	–	> 100 µM	> 100 µM	–	> 100 µM	–	–	–	–	–	–	–	–	–	–
Cc1ccc(Nc2ccc(Nc3ccc(C)cc3)c3c2C(=O)c2c(O)ccc(O)c2C3=O)cc1	> 100 µM	> 100 µM	> 100 µM	> 100 µM	> 100 µM	–	> 100 µM	> 100 µM	> 100 µM	> 100 µM	–	–	–	–	–	–	–	–	–	–
O=C1/C(=C/c2cccs2)CCC/C1=C\c1cccs1	> 100 µM	> 100 µM	> 100 µM	> 100 µM	49.2 µM	> 100 µM	> 100 µM	–	74.2 µM	> 100 µM	> 100 µM	> 100 µM	51.6 µM	21.9 µM	55.8 µM	> 54.3 µM	26.5 µM	> 100 µM	–	> 94.9 µM
